According to publication PMC9698340, “Discovery and SAR Study of Quinoxaline–Arylfuran Derivatives as a New Class of Antitumor Agents” (Pharmaceutics, 2022):

Legend:
[1] = test system: five melanoma cell lines, including mutant B-RAFV600E and wild-type; design: method as in PMID 30691132; settings: range over cell lines; read-out: IC50 values against five melanoma cell lines; cited from earlier work
L02 cells = assay: CCK-8 cytotoxicity against normal hepatocytes L02; assay type: cell-based; settings: Homo sapiens, 48 h, read-out: IC50 ± SD, L02 (human normal hepatocytes)
Method: (§1) Human lung carcinoma cell lines A549, human cervical cancer cell lines HeLa, human prostate cancer cell lines PC3, human colorectal carcinoma cell lines HCT116, and human liver cells L02 were purchased from the Chinese Academy of Sciences Shanghai Cell Bank (Shanghai, China). HeLa, A549, PC3, HCT116, and L02 cells were cultured in DMEM Dulbecco’s Modified Eagle Medium (DMEM; Gibco Inc., Gaithersburg, MD, USA). All cultures were provided with 10% fetal bovine serum (FBS; YHSM, Beijing, China), 100 IU/mL penicillin, and 100 μg/mL streptomycin, and cells were incubated at 37 °C in an atmosphere of 5% CO2.
(§2) Cell viability was determined using a CCK-8 kit (Apexbio, Houston, TX, USA). […] Subsequently, absorbance was assessed at 450 nm. Three duplicates were set in each group.
To further evaluate the anticancer effect of QW12, we evaluated its cytotoxicity against four human cancer cell lines: HeLa (Human cervical tumor), PC3 (Human prostate tumor), HCT116 (Human colorectal carcinomas), and A549 (Human lung carcinoma). […] Furthermore, the IC50 values of QW12 against PC3 and HCT116 were similar to those of nifuroxazide.

HeLa cells = assay: CCK-8 antiproliferation assay, HeLa; assay type: cell-based; settings: Homo sapiens, 48 h; for inhibition at 20 µM: CCK-8, mean ± SD, read-out: Inhibition Rate (%) at 20 μM, HeLa
Method: as §1, §2
(§3) All synthesized quinoxalines compounds were tested for in vitro cytotoxicity against four cancer cell lines (HeLa, PC3, A549, and HCT116). The inhibitory effects of these compounds were evaluated using the CCK-8 assay after treatment with 20 μM of each compound. […] The species of phenyl substituents have a significant effect on the activity. […] By comparison, hydrophobic substitution at the phenyl ring gave derivatives with relatively low potency (QW7–8). In addition, large substituents on the phenyl ring exerted an unfavorable influence on the potency of the compounds (QW8 and QW16).

HCT116 cells = assay: CCK-8 antiproliferation assay, HCT116; assay type: cell-based; settings: Homo sapiens, HCT-116, 48 h; for inhibition at 20 µM: CCK-8, mean ± SD, read-out: Inhibition Rate (%) at 20 μM, HCT116
Method: as §1, §2, §3

PC3 cells = assay: CCK-8 antiproliferation assay, PC3; assay type: cell-based; settings: Homo sapiens, PC-3, 48 h; for inhibition at 20 µM: CCK-8, mean ± SD, read-out: Inhibition Rate (%) at 20 μM, PC3
Method: as §1, §2, §3

A549 cells = assay: CCK-8 antiproliferation assay, A549; assay type: cell-based; settings: Homo sapiens, 48 h; for inhibition at 20 µM: CCK-8, mean ± SD, read-out: Inhibition Rate (%) at 20 μM, A549
Method: as §1, §2, §3

N=C(N)[Se]Cc1nc2ccccc2nc1C[Se]C(=N)N [Compound 5]
IC50 [1]: 0.8 to 3.8 µM

O=C(N/N=C/c1ccc([N+](=O)[O-])o1)c1ccc(O)cc1 [Nifuroxazide, nifuroxazide, reference compound]
IC50 (L02 cells): 25.3 ± 0.31 µM | IC50 (HeLa cells; HeLa, CCK-8, read-out: IC50 ± SD, HeLa): 16.65 ± 0.08 µM | inhibition at 20 µM (HeLa cells): 80.38 ± 0.17% | inhibition at 20 µM (HCT116 cells): 85.31 ± 0.24% | IC50 (HCT116 cells; CCK-8, read-out: IC50 ± SD, HCT116): 10.46 ± 0.04 µM | inhibition at 20 µM (PC3 cells): 75.29 ± 0.33% | IC50 (PC3 cells; CCK-8, read-out: IC50 ± SD, PC3): 9.83 ± 0.05 µM | inhibition at 20 µM (A549 cells): 91.23 ± 0.04% | IC50 (A549 cells; CCK-8, read-out: IC50 ± SD, A549): 8.06 ± 0.03 µM

COc1cc(-c2cc(OC)c3ccccc3c2OC)c(OC)cc1-c1ccc(/C=N/NC(=O)c2ccncc2)o1 [QW21, (E)-N’-((5-(4-(1,4-dimethoxynaphthalen-2-yl)-2,5-dimethoxyphenyl)furan-2-yl)methylene)isonicotinohydrazide]
inhibition at 20 µM (HeLa cells): 0.36 ± 0.6% | inhibition at 20 µM (HCT116 cells): 4.46 ± 0.24% | inhibition at 20 µM (PC3 cells): 0.12 ± 0.2% | inhibition at 20 µM (A549 cells): 0.68 ± 0.36%

COc1cc(-c2cc(OC)c3ccccc3c2OC)c(OC)cc1-c1ccc(/C=N/NC(=O)c2ccccn2)o1 [QW22, (E)-N’-((5-(4-(1,4-dimethoxynaphthalen-2-yl)-2,5-dimethoxyphenyl)furan-2-yl)methylene)picolinohydrazide]
inhibition at 20 µM (HeLa cells): 5.47 ± 0.37% | inhibition at 20 µM (HCT116 cells): 6.58 ± 0.23% | inhibition at 20 µM (PC3 cells): 0.33 ± 0.06% | inhibition at 20 µM (A549 cells): 37.5 ± 0.48%

COc1cc(-c2cc(OC)c3ccccc3c2OC)c(OC)cc1-c1ccc(/C=N/NC(=O)c2cccc(C)c2)o1 [QW23, (E)-N’-((5-(4-(1,4-dimethoxynaphthalen-2-yl)-2,5-dimethoxyphenyl)furan-2-yl)methylene)-3-methylbenzohydrazide]
inhibition at 20 µM (HeLa cells): 0.84 ± 0.64% | inhibition at 20 µM (HCT116 cells): 2.26 ± 0.03% | inhibition at 20 µM (PC3 cells): 2.99 ± 0.25% | inhibition at 20 µM (A549 cells): 1.87 ± 0.33%

COc1cc(-c2cc(OC)c3ccccc3c2OC)c(OC)cc1-c1ccc(/C=N/NC(=O)c2ccc(-c3ccccc3)cc2)o1 [QW24, (E)-N’-((5-(4-(1,4-dimethoxynaphthalen-2-yl)-2,5-dimethoxyphenyl)furan-2-yl)methylene)-[1,1’-biphenyl]-4-carbohydrazide]
inhibition at 20 µM (HeLa cells): 4.96 ± 0.61% | inhibition at 20 µM (HCT116 cells): 4.39 ± 0.52% | inhibition at 20 µM (PC3 cells): 2.4 ± 0.07% | inhibition at 20 µM (A549 cells): 6 ± 0.1%
